Reference: article PMC10098121, “Amphipathic barbiturates as marine product mimics with cytolytic and immunogenic effects on head and neck squamous cell carcinoma cell lines” (Frontiers in Pharmacology, 2023)
Like-named read-outs stand apart in the source and are kept apart here.

Tests used:
[1] = tested on: seven HNSCC cell lines and one normal oral fibroblast cell line (NOF); assay: High throughput drug screening, statements on the whole panel; assay type: cell-based, human; conditions: DSS
Experimental: (§1) The MPMs were screened against a panel of […] different cell lines (HSC-3, UT-SCC-8, UT-SCC-24A, UT-SCC-24B, UT-SCC-42A, UT-SCC-42B and NOF) at the High Throughput Biomedicine Unit (HTB) at the Institute for Molecular Medicine Finland (FIMM). On day 1, black-walled 384-well plates were coated with 5 µl diluted myogel (0.5 mg/ml) per well using an automated reagent dispenser (MultiFlo FX, BioTek, Winooski, VT, United States). On day 2, 500 cells per well were seeded in 20 µl of complete media using the MultiFlo FX (BioTek), and the cells were left to adhere overnight. On day 3, the MPMs, cisplatin, DMSO and Benzethonium chloride were added to the cells using an automatic liquid handler (Echo 550, Labcyte Inc., San Jose, CA, United States). Cisplatin and the MPMs were added to yield five different concentrations in a ten-fold dilution series ranging from 10 to 100,000 nM. Each concentration was tested in triplicate wells. DMSO (0.1%) and benzethonium chloride (100 µM) served as negative and positive control, respectively. Three hours later, some of the plates were irradiated with 2 Gy in a gamma irradiator (OB29/4, STS, Braunschweig, Germany). All plates were taken to the irradiation room to ensure similar handling of the plates. 72 h later, the plates were cooled to room temperature before 25 µl of CellTiter-Glo 2.0 reagent (Promega, Madison, WI, USA) was added to each well using the MultiFlo FX (BioTek). Next, the plates were centrifuged for 5 min at 1,000 rpm before the luminescence signal was measured with the PHERAstar FS HT reader (BMG LABTECH GmbH, Ortenberg, Germany). The raw data was analyzed with the Breeze software (https://breeze.fmm.fi), which normalized the luminescence signal from treated cells against the signal from negative and positive control cells to calculate the percentage of inhibition and generate dose-response curves, which were then used to calculate drug sensitivity scores (DSS). The DSS is a parameter which combines the IC50, the slope of the dose-response curve, and the minimum and maximum responses into a single metric, as previously described ([Yadav et al., 2014]). Quality control was performed by calculation of the Z′-factor, which was >0.7 for all cell lines, indicating high quality of the assay ([Zhang et al., 1999]).

human red blood cells [2] = tested on: human red blood cells; set-up: method as in von Hofsten et al., 2022; conditions: highest concentration 500 μM; ref von Hofsten et al., 2022; read-out: EC50 hemolytic activity against human red blood cells; cited from earlier work
UT-SCC-24A = assay: High throughput drug screening (CellTiter-Glo, DSS); assay type: cell-based, human; conditions: for drug sensitivity score (DSS): 72 h, 10-100,000 nM, myogel, non-irradiated; for delta DSS (ΔDSS): DSS irradiated (2 Gy) minus DSS non-irradiated, >5 synergy, <–5 antagonism
Experimental: as §1

UT-SCC-106A = assay: as above; assay type: cell-based, human; conditions: for drug sensitivity score (DSS): 72 h, 10-100,000 nM, myogel, non-irradiated; for delta DSS (ΔDSS): DSS irradiated (2 Gy) minus DSS non-irradiated, >5 synergy, <–5 antagonism
Experimental: as §1

UT-SCC-42A = assay: as above; assay type: cell-based, human; conditions: for drug sensitivity score (DSS): 72 h, 10-100,000 nM, myogel, non-irradiated; for delta DSS (ΔDSS): DSS irradiated (2 Gy) minus DSS non-irradiated, >5 synergy, <–5 antagonism
Experimental: as §1

UT-SCC-8 = assay: as above; assay type: cell-based, human; conditions: for drug sensitivity score (DSS): UT-SCC-8, 72 h, 10-100,000 nM, myogel, non-irradiated; for delta DSS (ΔDSS): UT-SCC-8, DSS irradiated (2 Gy) minus DSS non-irradiated, >5 synergy, <–5 antagonism
Experimental: as §1

[3] = tested on: NOF (normal oral fibroblasts); assay: as above; assay type: cell-based, human; conditions: for drug sensitivity score (DSS): 72 h, 10-100,000 nM, myogel, non-irradiated; for delta DSS (ΔDSS): DSS irradiated (2 Gy) minus DSS non-irradiated, >5 synergy, <–5 antagonism
Experimental: as §1

UT-SCC-24B = assay: as above; assay type: cell-based, human; conditions: for drug sensitivity score (DSS): 72 h, 10-100,000 nM, myogel, non-irradiated; for delta DSS (ΔDSS): DSS irradiated (2 Gy) minus DSS non-irradiated, >5 synergy, <–5 antagonism
Experimental: as §1

UT-SCC-42B = assay: as above; assay type: cell-based, human; conditions: for drug sensitivity score (DSS): 72 h, 10-100,000 nM, myogel, non-irradiated; for delta DSS (ΔDSS): DSS irradiated (2 Gy) minus DSS non-irradiated, >5 synergy, <–5 antagonism
Experimental: as §1

HSC-3 = assay: as above; assay type: cell-based, human; conditions: for drug sensitivity score (DSS): HSC-3, 72 h, 10-100,000 nM, myogel, non-irradiated; for delta DSS (ΔDSS): HSC-3, DSS irradiated (2 Gy) minus DSS non-irradiated, >5 synergy, <–5 antagonism
Experimental: as §1

human red blood cells [4] = assay: Hemolysis assay; assay type: cell-based; conditions: Homo sapiens, Erythrocyte; 1 h, 37°C; highest concentration tested 500 μM; average of three experiments; read-out: EC50 hemolytic activity against human red blood cells
Experimental: The hemolytic effect of the MPMs was determined using a hemolysis assay as previously described ([Paulsen et al., 2021]). Briefly, hemolysis was determined using a heparinized fraction (10 IU/mL) of freshly drawn blood. The blood collected in ethylenediaminetetraacetic acid-containing test tubes (Vacutest, KIMA, Arzergrande, Italy) was used for the determination of the hematocrit (hct). The heparinized blood was washed 3 × with pre-warmed phosphate-buffered saline (PBS) and adjusted to a final hct of 4%. MPMs in DMSO (50 mM) were added to a 96-well polypropylene V-bottom plate (NUNC, Fisher Scientific, Oslo, Norway) and serially diluted. The test concentration range was 4–500 μM with DMSO contents ≤1%. A solution of 1% triton X-100 was used as a positive control for 100% hemolysis. As a negative control, a solution of 1% DMSO in PBS was included. Red blood cells (1% v/v final concentration) were added to the well plate and incubated at 37°C and 800 rpm for 1 h. After centrifugation (5 min, 3000 g), 100 μL from each well was transferred to a 96-well flat-bottomed microtiter plate, and absorbance was measured at 545 nm with a microplate reader (VersaMaxTM, Molecular Devices, Sunnyvale, CA, United States). The percentage of hemolysis was calculated as the ratio of the absorbance in the MPM treated and surfactant-treated samples, corrected for the PBS background. Three independent experiments were performed, and EC50 values are presented as averages.

[5] = tested on: Staphylococcus aureus ATCC 9144; assay: Bacterial minimum inhibitory concentration (broth microdilution); assay type: cell-based; conditions: ATCC9144; Staphylococcus aureus ATCC 9144, 48 h, 35 °C, di-TFA salts
Experimental: (§2) Method for determination of bacterial minimum inhibitory concentration (MIC) Stock solutions of the water-soluble compounds were prepared by dissolving them in ultrapure water (Milli-Q H2O, Millipore, MA, USA). The less water-soluble compounds were first dissolved in 25 - 50 µL 100% DMSO before further dilution with ultrapure water. The DMSO concentration was always less than 1% in the working concentration of each compound. A modified broth microdilution susceptibility test based on the CLSI M07-A9 protocol, [2] was used to determine minimal inhibitory concentrations (MIC). Briefly, the test compounds were two-fold diluted with ultrapure water in polystyrene 96-well flat-bottom microplates (NUNC, Roskilde, Denmark). The bacterial inoculum was diluted to 2.5 - 3 x 10^4 cells/mL in Mueller-Hinton broth (MHB, Difco Laboratories, USA) and added to the different diluted compounds in a ratio of 1:1. Positive control (ciprofloxacin, Sigma-Aldrich, USA), negative control (bacteria + water), and media control (media + water) were included in each experiment. The microplates were incubated for 48 h at 35 °C in an EnVision microplate reader (PerkinElmer, Waltham, MA, USA). The lowest concentration of compounds that caused no bacterial growth, as determined by optical density (OD600) measurements, was defined as the MIC value. All compounds were tested in 3 technical replicates.
(§3) Supplementary Video S1. HSC-3 cells were seeded at 100% confluence and a standard scratch wound migration assay was performed. The cells were imaged every 2 hours for 24 hours. The video

[6] = tested on: Pseudomonas aeruginosa ATCC 27853; assay: as above; assay type: cell-based; conditions: ATCC27853; Pseudomonas aeruginosa ATCC 27853, 48 h, 35 °C, di-TFA salts
Experimental: as §2, §3

Bacillus subtilis 168 = assay: as above; assay type: cell-based; conditions: Bacillus subtilis 168, 48 h, 35 °C, di-TFA salts
Experimental: as §2, §3

[7] = tested on: Escherichia coli ATCC 25922; assay: as above; assay type: cell-based; conditions: ATCC25922; Escherichia coli ATCC 25922, 48 h, 35 °C, di-TFA salts
Experimental: as §2, §3

| SMILES | drug sensitivity score (DSS) (UT-SCC-24A) | delta DSS (ΔDSS) (UT-SCC-24A) | drug sensitivity score (DSS) (UT-SCC-106A) | delta DSS (ΔDSS) (UT-SCC-106A) | drug sensitivity score (DSS) (UT-SCC-42A) | delta DSS (ΔDSS) (UT-SCC-42A) | drug sensitivity score (DSS) (UT-SCC-8) | delta DSS (ΔDSS) (UT-SCC-8) | drug sensitivity score (DSS) [3] | delta DSS (ΔDSS) [3] | drug sensitivity score (DSS) (UT-SCC-24B) | delta DSS (ΔDSS) (UT-SCC-24B) | drug sensitivity score (DSS) (UT-SCC-42B) | delta DSS (ΔDSS) (UT-SCC-42B) | drug sensitivity score (DSS) (HSC-3) | delta DSS (ΔDSS) (HSC-3) | other results |
| --- | --- | --- | --- | --- | --- | --- | --- | --- | --- | --- | --- | --- | --- | --- | --- | --- | --- |
| NCCCCN1C(=O)N(CCCCN)C(=O)C(CCCc2ccccc2)(CCCc2ccccc2)C1=O [MPM-1] | 6,9 | -1,1 | 10,3 | 0,3 | 8,4 | -0,8 | 10 | -0,8 | 17,1 | 0,4 | 9,7 | 0,5 | 7,4 | 0,6 | 8,8 | 0 | selectivity for cancer cell lines over NOFs (in words) ([1]; cancer lines and NOFs cultured in different media): slight tendency towards selectivity for the NOFs, which was especially prominent for MPM-1; EC50 (human red blood cells [2]): > 500 µM |
| C[N+](C)(C)CCCCN1C(=O)N(CCCC[N+](C)(C)C)C(=O)C(CCCc2ccccc2)(CCCc2ccccc2)C1=O [MPM-4:3] | 0 | 0 | 0,5 | -0,5 | 0,1 | 0 | 0 | 0 | 2,2 | -1,4 | 0 | 0,1 | 0,1 | -0,1 | 0 | 0 | potency / effect on viability over the cell line panel (in words) ([1]; 72 h): completely inactive; EC50 (human red blood cells [4]): > 500 µM; MIC [5]: 64 µg/mL; MIC [6]: > 64 µg/mL; MIC (Bacillus subtilis 168): > 64 µg/mL; MIC [7]: 64 µg/mL |
